How the values were obtained:
Test in all cases: microbe, parasite or virus in culture
Format in all cases: cell-based
Phytophthora infestans = conditions: for IC50 P. infestans: fungal growth on 1.5% agar minimal media, 20° C., 3-5 days, 3-fold serial dilutions, C.V. class in parentheses; for IC50: Phytophthora infestans, read-out: IC50 P. infestans
Stagonospora nodorum = conditions: for IC50: Parastagonospora nodorum, read-out: IC50 S. nodorum
Botrytis cinerea = conditions: read-out: IC50 B. cinerea
Septoria tritici = conditions: for IC50: Zymoseptoria tritici, read-out: IC50 S. tritici

Compound | IC50 P. infestans (Phytophthora infestans) | IC50 S. nodorum (Stagonospora nodorum) | IC50 (Botrytis cinerea) | IC50 S. tritici (Septoria tritici) | IC50 (Phytophthora infestans) | IC50 (Stagonospora nodorum) | IC50 (Septoria tritici)
C=C(C(=O)OCc1ccc(Cl)c(Cl)c1)C(O)c1nccs1 (stereo not drawn) [Compound 4, 3,4-Dichlorophenylmethyl β-hydroxy-α-methylene-2-thiazolepropanoate] | B (d) | C (b) | < 5 µM | B (b) |  |  | 
O=C(OCc1cccc(C(F)(F)F)c1)/C(=C\c1ccccc1)C(O)c1cccnc1 (stereo not drawn) [Compound 5, 3-(Trifluoromethyl)phenylmethyl Z-α-(α-hydroxy-3-pyridylmethyl)-3-phenylpropenoate] |  | A (b) | > 25 µM | A (b) | > 25 µM |  | 
C=C(C(=O)Oc1ccc(Cl)cc1)C(O)c1cccnc1 (stereo not drawn) [Compound 19, 4-Chlorophenyl β-hydroxy-α-methylene-3-pyridinepropanoate] | A (c) | C (c) | > 25 µM | A (c) |  |  | 
C=C(C(=O)OCc1ccc(Oc2cccc(Cl)c2)cc1)C(O)c1cccnc1 (stereo not drawn) [Compound 24, 4-(3-Chlorophenoxy)phenylmethyl β-hydroxy-α-methylene-3-pyridinepropanoate] |  | C (c) | > 25 µM | A (d) | 16 to 25 µM |  | 
C=C(C(=O)OCc1ccc(Oc2ccccc2)cc1)C(O)c1cccnc1 (stereo not drawn) [Compound 28, 4-Phenoxyphenylmethyl β-hydroxy-α-methylene-3-pyridinepropanoate] | B (a) |  |  |  |  | 6 to 15 µM | < 5 µM
C=C(C(=O)OCc1ccc(Oc2ccccc2)cc1)C(O)c1nccs1 (stereo not drawn) [Compound 30, 4-Phenoxyphenylmethyl β-hydroxy-α-methylene-2-thiazolepropanoate] | A (b) |  | 16 to 25 µM |  |  | > 25 µM | 6 to 15 µM

Reference: patent US7541472B2 (priority 2004, dated 2009)
